In patent US20060035901A1, “Methotrexate derivatives useful for treating cancer and arthritis” (Serenex, Inc., priority 2004, published 2006):

What was measured:
[1] = target: T1, propionyl-CoA carboxylase subunit alpha (PCCA) (Sus scrofa, UniProt P0DTA4); experiment: Elution of PCCA from ATP-Sepharose column loaded with porcine liver proteome, IC50 estimate; type: binding; details: estimated from percent of protein eluted from ATP-Sepharose column, read-out: Approximate IC50 for PCCA
T1 construct: a porcine liver proteome was run over an ATP-Sepharose™ column; from tissue; host or cells: porcine liver
T1 sequence (P0DTA4 53-730): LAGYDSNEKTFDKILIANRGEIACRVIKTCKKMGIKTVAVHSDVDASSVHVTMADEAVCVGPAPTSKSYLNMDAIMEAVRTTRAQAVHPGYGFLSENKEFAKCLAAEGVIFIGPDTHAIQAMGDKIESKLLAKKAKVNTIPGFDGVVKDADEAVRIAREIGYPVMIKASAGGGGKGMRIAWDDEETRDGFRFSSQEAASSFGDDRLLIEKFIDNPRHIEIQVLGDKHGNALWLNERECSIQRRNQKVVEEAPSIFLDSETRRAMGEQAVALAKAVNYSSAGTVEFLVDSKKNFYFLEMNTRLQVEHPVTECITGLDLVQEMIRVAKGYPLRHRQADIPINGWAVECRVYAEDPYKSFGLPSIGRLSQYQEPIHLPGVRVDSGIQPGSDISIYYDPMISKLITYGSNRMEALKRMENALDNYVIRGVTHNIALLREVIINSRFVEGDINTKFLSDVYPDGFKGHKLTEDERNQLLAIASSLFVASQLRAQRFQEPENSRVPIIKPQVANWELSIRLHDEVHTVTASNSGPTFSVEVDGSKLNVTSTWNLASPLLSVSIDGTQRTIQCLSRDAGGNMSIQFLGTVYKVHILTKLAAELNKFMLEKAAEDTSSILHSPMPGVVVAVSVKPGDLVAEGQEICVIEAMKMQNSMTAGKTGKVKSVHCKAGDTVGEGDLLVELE
T1 sequence (P79384 29-539 partner): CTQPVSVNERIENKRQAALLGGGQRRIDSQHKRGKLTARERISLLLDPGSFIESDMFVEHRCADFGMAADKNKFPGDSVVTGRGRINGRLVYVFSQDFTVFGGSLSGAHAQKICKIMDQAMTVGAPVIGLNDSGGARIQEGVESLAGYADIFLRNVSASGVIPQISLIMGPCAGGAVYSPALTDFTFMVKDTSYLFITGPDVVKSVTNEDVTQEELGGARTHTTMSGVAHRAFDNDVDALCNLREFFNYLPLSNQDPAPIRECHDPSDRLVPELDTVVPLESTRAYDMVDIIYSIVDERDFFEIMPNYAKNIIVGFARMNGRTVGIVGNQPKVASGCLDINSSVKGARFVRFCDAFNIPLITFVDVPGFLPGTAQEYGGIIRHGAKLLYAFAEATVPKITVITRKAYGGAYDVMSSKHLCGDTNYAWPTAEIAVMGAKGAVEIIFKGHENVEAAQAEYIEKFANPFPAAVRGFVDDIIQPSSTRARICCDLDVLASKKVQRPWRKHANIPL
Protocol: (§1) Similar experiments were carried out to compare the IC50 values for PYC, PCCA, and PCCB. In these trials, a porcine liver proteome was run over an ATP-Sepharose™ column to bind all purine-binding proteins. The ATP-Sepharose™ column was washed several times, and then eluted with the compound of Formula III at concentrations of 1 μM, 5 μM, 10 μM, 50 μM, 100 μM, and 500 μM to identify proteins that bound to this compound.
(§2) Gels were stained with a fluorescent stain such as sypro ruby (a highly sensitive fluorescent protein stain that can readily detect less than 1 fmol of total protein, i.e., less than 0.04 ng for a 40 kDa protein). The gels were imaged using a standard flat bed gel imager and the amount of protein estimated by densiometry. The percent of protein eluted from the column at each concentration was determined and IC50 values were calculated from these estimates. Where necessary, the eluted proteins were cut out of the gel, and identified using mass spectral techniques.
(§3) The values obtained were then compared to those for DHFR.

[2] = target: T2, DHFR (Homo sapiens, UniProt P00374); experiment: DHFR enzymatic assay; type: biochemical; details: determined by enzymatic assay
T2 sequence (P00374 1-187): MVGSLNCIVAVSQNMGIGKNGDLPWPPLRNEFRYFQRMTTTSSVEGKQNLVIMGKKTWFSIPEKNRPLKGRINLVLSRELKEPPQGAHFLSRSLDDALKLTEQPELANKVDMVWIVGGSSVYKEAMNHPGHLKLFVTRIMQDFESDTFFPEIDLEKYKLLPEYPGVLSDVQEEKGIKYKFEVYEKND

[3] = target: T3, propionyl-CoA carboxylase subunit beta (PCCB) (Sus scrofa, UniProt P79384); experiment: Elution of PCCB from ATP-Sepharose column loaded with porcine liver proteome, IC50 estimate; type: binding; details: estimated from percent of protein eluted from ATP-Sepharose column, read-out: Approximate IC50 for PCCB
T3 construct: a porcine liver proteome was run over an ATP-Sepharose™ column; from tissue; host or cells: porcine liver
T3 sequence (P79384 29-539): T1 sequence (P79384 29-539 partner)
T3 sequence (P0DTA4 53-730 partner): T1 sequence (P0DTA4 53-730)
Protocol: as §1, §2, §3

| IC50 [1] [nM] | IC50 [2] [nM] | IC50 [3] [µM] | Compound |
| --- | --- | --- | --- |
| 2000 | 10 | 3.5 | C#CCN(Cc1cnc2nc(N)nc(N)c2n1)c1ccc(C(=O)NC(CCC(=O)O)C(=O)O)cc1C (stereo not drawn) [Formula III, 2-{4-[(2,4-diamino-pteridin-6-ylmethyl)-prop-2-ynyl-amino]-3-methyl-benzoylamino}-pentanedioic acid] |
| 10000 | 118 | 14 | C#CCN(Cc1cnc2nc(N)nc(N)c2n1)c1ccc(C(=O)NC(CCC(=O)O)C(=O)O)cc1OC(F)(F)F (stereo not drawn) [Formula IX] |
| 2000 | 15 | 3.5 | C#CCN(Cc1cnc2nc(N)nc(N)c2n1)c1ccc(C(=O)NC(CCC(=O)O)C(=O)O)cc1OC (stereo not drawn) [Formula VIII] |
| 2000 | 15 | 3 | Cc1cc(C(=O)NC(CCC(=O)O)C(=O)O)ccc1N(Cc1ccoc1)Cc1cnc2nc(N)nc(N)c2n1 (stereo not drawn) [Formula VII] |
